This test addresses T1, Rv3852 (Mycobacterium tuberculosis, UniProt I6YHB0).
T1 construct: gene hns
Nature of the test: ITC; supported by competitive EMSA with proU2 DNA. It is filed as binding. In general terms: In ITC the heat of successive injections is recorded.

From publication PMC4433263, “Identification of Rv3852 as an Agrimophol-Binding Protein in Mycobacterium tuberculosis” (PLoS ONE, 2015) come the findings set out here.

Broadly, the Kd is a measure of binding affinity in units of concentration. Higher therefore signals weaker binding.

Each structure is given as a SMILES string.

T1 sequence (I6YHB0 2-134 limits assumed): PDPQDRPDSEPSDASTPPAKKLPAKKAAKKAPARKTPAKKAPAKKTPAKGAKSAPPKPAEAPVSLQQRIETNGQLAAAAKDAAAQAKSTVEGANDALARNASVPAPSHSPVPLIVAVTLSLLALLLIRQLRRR

As for `C#CCOc1c(C)c(O)c(Cc2c(O)c(C)c(O)c(C(=O)C(C)CC)c2O)c(O)c1C(=O)CCC` (centres unmarked) [a1], binding was characterised by a dissociation constant (Kd) of 22 µM.

In turn, `CCCC(=O)c1c(O)c(CC2(C)C(=O)C(C(=O)C(C)CC)=C(O)C(C)=C2O)c(O)c(C)c1OC` (centres unmarked) [agrimophol] had a Kd of 34 µM.
